Measured values as given in patent US6683103B2, “Sulfonamides for treatment of endothelin-mediated disorders” (Texas Biotechnology Corporation, priority 1997, dated 2004).
Like-named read-outs stand apart in the source and are kept apart here.

Columns and labels:
[1] = target: T1, human ETA receptors (Homo sapiens, UniProt P25101); assay: Binding Test #1: inhibition of 125I-ET-1 binding to ETA receptors (TE 671 cell membranes)
T1 construct: endogenous in cells; host or cells: TE 671 cells (ATCC HTB 139)
T1 sequence (P25101 21-427): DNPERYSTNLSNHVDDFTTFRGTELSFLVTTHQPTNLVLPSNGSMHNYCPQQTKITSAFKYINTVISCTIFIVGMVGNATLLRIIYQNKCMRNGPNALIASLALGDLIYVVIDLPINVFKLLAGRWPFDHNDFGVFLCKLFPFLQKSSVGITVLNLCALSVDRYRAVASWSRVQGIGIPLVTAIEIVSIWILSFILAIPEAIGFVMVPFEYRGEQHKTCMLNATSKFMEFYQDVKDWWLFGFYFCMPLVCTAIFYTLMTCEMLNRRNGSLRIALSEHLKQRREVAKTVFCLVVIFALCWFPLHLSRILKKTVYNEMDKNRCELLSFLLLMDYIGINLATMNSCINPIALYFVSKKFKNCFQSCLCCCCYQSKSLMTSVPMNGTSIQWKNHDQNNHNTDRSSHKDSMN
Procedure, shortened: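 Membranes from TE 671 cells (up to 8 μg protein) incubated with ¹²⁵I-ET-1 and compound (1 nM–100 μM final) in 30 mM HEPES pH 7.4, 150 mM NaCl, 5 mM MgCl2, 0.5% bacitracin, 16–18 h at 4 °C or alternatively at 24 °C. Nonspecific binding with 80 nM ET-1; bound pellet gamma-counted, % inhibition calculated, usually triplicate.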

[2] = target: T2, human ETB receptor (Homo sapiens, UniProt P24530); assay: Binding Test #2: inhibition of 125I-ET-1 binding to ETB receptors (transfected COS7 cell membranes)
T2 construct: expressed in transfected cells; host or cells: COS7 cells
T2 sequence (P24530 27-442): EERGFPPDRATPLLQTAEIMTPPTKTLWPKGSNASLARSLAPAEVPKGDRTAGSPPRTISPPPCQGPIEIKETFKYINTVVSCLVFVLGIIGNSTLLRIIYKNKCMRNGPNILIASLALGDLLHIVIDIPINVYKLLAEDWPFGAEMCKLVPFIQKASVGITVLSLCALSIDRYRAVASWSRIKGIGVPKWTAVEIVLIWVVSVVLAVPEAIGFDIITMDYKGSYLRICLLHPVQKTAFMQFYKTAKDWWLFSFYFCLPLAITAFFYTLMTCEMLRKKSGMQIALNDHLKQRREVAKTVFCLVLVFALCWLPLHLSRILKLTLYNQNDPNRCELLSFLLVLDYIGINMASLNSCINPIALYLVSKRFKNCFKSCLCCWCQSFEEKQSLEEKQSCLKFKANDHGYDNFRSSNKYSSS
Procedure, shortened: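 Competition with 125I-ET-1 for binding to membranes from COS7 cells transfected with human ETB receptor, used at 1 μg/50 μl binding buffer. Membranes prepared in HEPES pH 7.4 with aprotinin, including a DNase/MnCl2 step at 37 °C for 30 min.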

[3] = Table 1, incubation at 4° C., read-out: ETA
[4] = Table 1, † incubation at 24° C., read-out: ETA
[5] = Table 1, incubation at 4° C., read-out: ETB
[6] = Table 1, † incubation at 24° C., read-out: ETB
[7] = Table 2, incubation at 4° C., read-out: ETA
[8] = Table 2, incubation at 4° C., read-out: ETB

## Cc1noc(NS(=O)(=O)c2sccc2CCc2ccccc2)c1Br [N-(4-bromo-3-methyl-5-isoxazolyl)-3-(phenethyl)thiophene-2-sulfonamide]
[1]; [3]
  IC50: 0.16 µM
[1]; [4]
  IC50: 0.676 µM
[2]; [5]
  IC50: 10.8 µM
[2]; [6]
  IC50: 37.2 µM

## Cc1noc(NS(=O)(=O)c2cccc(-c3ccccc3)c2)c1Cl [N-(4-chloro-3-methyl-5-isoxazolyl)-3-biphenylsulfonamide]
[1]; [7]
  IC50: > 0.03 µM
[2]; [8]
  IC50: 0.793 µM
[2]; read-out: IC50 for ETB receptors
  IC50: ~0.793 µM

## Cc1noc(NS(=O)(=O)c2ccc(-c3cc(C(F)(F)F)n(C)n3)s2)c1Br [N-(4-Bromo-3-methyl-5-isoxazolyl)-5-{3-[1-methyl-5-(trifluoromethyl)pyrazolyl]}thiophene-2-sulfonamide]
[1]; [3]
  IC50: ~6.7 µM
[2]; [5]
  IC50: ~0.36 µM

## COc1ccccc1NC(=O)c1sccc1S(=O)(=O)Nc1onc(C)c1Br [N-(4-Bromo-3-methyl-5-isoxazolyl)-2-[N-(2-methoxyphenyl)aminocarbonyl]thiophene-3-sulfonamide]
[1]; [3]
  IC50: 0.0116 µM
[2]; [5]
  IC50: 13.2 µM

## Cc1noc(NS(=O)(=O)c2ccccc2-c2ccccc2)c1Br [N-(4-bromo-3-methyl-5-isoxazolyl)-2-biphenylsulfonamide]
[1]; [7]
  IC50: 0.00127 µM
[1]; read-out: IC50 for ETA receptors
  IC50: ~0.0016 µM
[2]; [8]
  IC50: 8.54 µM

## Cc1ccc(CC(=O)c2sccc2S(=O)(=O)Nc2onc(C)c2Cl)c(C)c1 [N-(4-chloro-3-methyl-5-isoxazolyl)-2-(2,4-dimethylphenylacetyl)thiophene-3-sulfonamide]
[1]; [4]
  IC50: 0.0004 µM
[2]; [6]
  IC50: 4.8 µM

## Cc1noc(NS(=O)(=O)c2ccsc2C/C=C/c2ccc3c(c2)OCO3)c1Br [N-(4-bromo-3-methyl-5-isoxazolyl)-2-[trans-(3,4-methylenedioxy)cinnamyl]thiophene-3-sulfonamide]
[1]; [4]
  IC50: 0.14 µM
[2]; [6]
  IC50: 1.4 µM

## CCc1ccc(-c2ccc(S(=O)(=O)Nc3onc(C)c3Cl)s2)s1 [N-(4-chloro-3-methyl-5-isoxazolyl)-5-(5-ethylthien-2-yl)thiophene-2-sulfonamide]
[1]; [4]
  IC50: 12 µM
[2]; [6]
  IC50: 0.71 µM

## COc1cccc(NC(=O)c2sccc2S(=O)(=O)Nc2onc(C)c2Br)c1 [N-(4-Bromo-3-methyl-5-isoxazolyl)-2-[N-(3-methoxyphenyl)aminocarbonyl]thiophene-3-sulfonamide]
[1]; [3]
  IC50: 0.003 µM
[2]; [5]
  IC50: 5.86 µM

## CCc1ccc(-c2ccc(S(=O)(=O)Nc3onc(C)c3Br)s2)cc1 [N-(4-bromo-3-methyl-5-isoxazolyl)-5-(4-ethylphenyl)thiophene-2-sulfonamide]
[1]; [3]
  IC50: 3.23 µM
[2]; [5]
  IC50: 0.0855 µM

## Cc1noc(NS(=O)(=O)c2ccc(C#CC(C)(C)C)s2)c1Br [N-(4-bromo-3-methyl-5-isoxazolyl)-5-(3,3-dimethylbutyn-1-yl)thiophene-2-sulfonamide]
[1]; [3]
  IC50: 1.12 µM
[1]; [4]
  IC50: 7.24 µM
[2]; [5]
  IC50: 24 µM
[2]; [6]
  IC50: 35.5 µM

## Cc1noc(NS(=O)(=O)c2ccc(-c3ccccc3)o2)c1Br [N-(4-bromo-3-methyl-5-isoxazolyl)-5-phenylfuran-2-sulfonamide]
[1]; [3]
  IC50: 0.857 µM
[2]; [5]
  IC50: 2.43 µM

## Cc1noc(NS(=O)(=O)c2ccsc2CC2(c3ccc4c(c3)OCO4)OCCO2)c1Cl [N-(4-chloro-3-methyl-5-isoxazolyl)-2-[β,β-(ethylenedioxy)-3,4-(methylenedioxy)phenethyl]thiophene-3-sulfonamide]
[1]; [4]
  IC50: 0.128 µM
[2]; [6]
  IC50: 2.09 µM

## Cc1ccc(/C=C/c2cc(-c3ccc(C)cc3)sc2S(=O)(=O)Nc2onc(C)c2Br)cc1 [N-(4-bromo-3-methyl-5-isoxazolyl)-3-(4-methyl-trans-styryl)-5-(4-tolyl)thiophene-2-sulfonamide]
[1]; [4]
  IC50: 6.9 µM
[2]; [6]
  IC50: 1.58 µM

## Cc1noc(NS(=O)(=O)c2ccc(-c3ccccc3)cc2)c1Cl [N-(4-chloro-3-methyl-5-isoxazolyl)-4-biphenylsulfonamide]
[1]; [7]
  IC50: 4.93 ± 3 µM
[2]; [8]
  IC50: 0.29 ± 0.1 µM

## N-(4-chloro-3-methyl-5-isoxazolyl)-2-[β-acetoxy-2-methyl-4,5-(methylenedioxy)styryl]thiophene-3-sulfonamide
[1]; [3]
  IC50: 0.00544 µM
[2]; [6]
  IC50: 3.74 µM

## Cc1noc(NS(=O)(=O)c2ccccc2-c2ccccc2)c1Cl [N-(4-chloro-3-methyl-5-isoxazolyl)-2-biphenylsulfonamide]
[1]; [7]
  IC50: 0.00123 µM
[2]; [8]
  IC50: ~14 µM

## COc1ccc(-c2ccc(S(=O)(=O)Nc3onc(C)c3Br)s2)cc1 [N-(4-bromo-3-methyl-5-isoxazolyl)-5-(4-methoxyphenyl)thiophene-2-sulfonamide]
[1]; [3]
  IC50: 8.69 µM
[1]; [4]
  IC50: 26.3 µM
[2]; [5]
  IC50: 0.363 µM
[2]; [6]
  IC50: 2.4 µM

## Cc1noc(NS(=O)(=O)c2ccc(-c3cc(C(F)(F)F)cc(C(F)(F)F)c3)s2)c1Br [N-(4-bromo-3-methyl-5-isoxazolyl)-5-[3,5-bis(triflouromethyl)phenyl]thiophene-2-sulfonamide]
[1]; [3]
  IC50: 0.794 µM
[1]; [4]
  IC50: 5.9 µM
[2]; [5]
  IC50: 12 µM
[2]; [6]
  IC50: 15.5 µM

## Cc1noc(NS(=O)(=O)c2cc3ccccc3n2C)c1Br [N-(4-bromo-3-methyl-5-isoxazolyl)-1-methylindole-2-sulfonamide]
[1]; [4]
  IC50: 77 µM
[2]; [6]
  IC50: ~100 µM

## Cc1noc(NS(=O)(=O)c2c(Cc3ccccc3)sc3ccccc23)c1Br [N-(4-bromo-3-methyl-5-isoxazolyl)-2-n-benzylbenzo[b]thiophene-3-sulfonamide]
[1]; [3]
  IC50: 0.0182 µM
[2]; [5]
  IC50: ~1 µM

## COC(=O)c1ccc(-c2ccc(S(=O)(=O)Nc3onc(C)c3Br)s2)cc1 [N-(4-bromo-3-methyl-5-isoxazolyl)-5-(4-methyoxycarbonylphenyl)thiophene-2-sulfonamide]
[1]; [4]
  IC50: > 100 µM
[2]; [6]
  IC50: 17 µM

## Cc1noc(NS(=O)(=O)c2ccsc2C(=O)O)c1Br [N-(4-Bromo-3-methyl-5-isoxazolyl)-2-(carboxyl)thiophene-3-sulfonamide]
[1]; [3]
  IC50: ~0.6 µM
[2]; [5]
  IC50: ~67 µM

## CCCCc1sc2ccccc2c1S(=O)(=O)Nc1onc(C)c1Br [N-(4-bromo-3-methyl-5-isoxazolyl)-2-butylbenzo[b]thiophene-3-sulfonamide]
[1]; [3]
  IC50: 0.0226 µM
[2]; [5]
  IC50: ~3 µM

## Cc1cc(NS(=O)(=O)c2ccc(-c3ccon3)s2)on1 [5-(3-isoxazolyl)-N-(3-methyl-5-isoxazolyl)-2-thiophenesulfonamide]
[1]; [3]
  IC50: 5.6 µM
[2]; [5]
  IC50: 6.7 µM

## Cc1noc(NS(=O)(=O)c2ccco2)c1Br [N-(4-bromo-3-methyl-5-isoxazolyl)furan-2-sulfonamide]
[1]; [3]
  IC50: 0.75 µM
[2]; [5]
  IC50: 88.1 µM

## Cc1noc(NS(=O)(=O)c2sccc2CC=Cc2cc3c(cc2COC2CCCCO2)OCO3)c1Br (stereo not drawn) [N-(4-bromo-3-methyl-5-isoxazolyl)-3-{2-[(tetrahydro-4H-pyran-2-ylxoy)methyl]-4,5-(methylenedioxy)cinnamyl}thiophene-2-sulfonamide]
[1]; [4]
  IC50: 0.0967 µM
[2]; [5]
  IC50: 4.14 µM

## Cc1noc(NS(=O)(=O)c2ccc(-c3ccccc3)s2)c1Br [N-(4-bromo-3-methyl-5-isoxazolyl)-5-phenylthiophene-2-sulfonamide]
[1]; [3]
  IC50: 3.53 µM
[1]; [4]
  IC50: 36.6 µM
[2]; [5]
  IC50: 0.417 µM
[2]; [6]
  IC50: 2.4 µM

## Cc1cc(S(=O)(=O)Nc2onc(C)c2Br)c(C)o1 [N-(4-bromo-3-methyl-5-isoxazolyl)-2,5-dimethylfuran-3-sulfonamide]
[1]; [3]
  IC50: 0.46 µM
[2]; [5]
  IC50: 36.5 µM

## Cc1noc(NS(=O)(=O)c2cc(-c3ccccc3)cs2)c1Br [N-(4-bromo-3-methyl-5-isoxazolyl)-4-phenylthiophene-2-sulfonamide]
[1]; [3]
  IC50: 0.224 µM
[2]; [5]
  IC50: 1.17 µM

## Cc1ccc(CCc2cc(-c3ccc(C)cc3)sc2S(=O)(=O)Nc2onc(C)c2Br)cc1 [N-(4-bromo-3-methyl-5-isoxazolyl)-3-(4-methylphenethyl)-5-(4-tolyl)thiophene-2-sulfonamide]
[1]; [4]
  IC50: 6.1 µM
[2]; [6]
  IC50: 2.09 µM

## Cc1noc(NS(=O)(=O)c2ccc(-c3cccs3)s2)c1Br [N-(4-bromo-3-methyl-5-isoxazolyl)-5-(2′-thienyl)thiophene-2-sulfonamide]
[1]; [3]
  IC50: 5.1 µM
[2]; [5]
  IC50: 0.363 µM

## Cc1ccc(NC(=O)c2c(S(=O)(=O)Nc3onc(C)c3Cl)c3ccccc3n2C)cc1 [N-(4-chloro-3-methyl-5-isoxazolyl)-2-[(4-tolyl)aminocarbonyl]-1-methylindole-3-sulfonamide]
[1]; [4]
  IC50: 31.3 µM
[2]; [6]
  IC50: 14.7 µM
